Test results: US20020002202A1, “Use of fumarate salt of L-carnitine or its alkanoyl derivatives in ischaemia” (priority 1998, published 2002)
Entries after “also recorded” stand apart in the source; their conditions may differ.

What was measured:
Perfused Heart = assay: low-pressure or low-flow ischemia model, perfused heart (Langendorff)
Source text: In this example, the low-pressure or low-flow ischemia model was used, which is a model recognised as valid for cardiac ischemia (Bolukoglu, H. et al. Am. J. Physiol. 1996: 270; H817-26).
The treatment schedule is illustrated in FIG. 1, in which the letters A-F denote the heart effluent sampling times for the measurement of metabolites. The hearts are removed from the animals and mounted on a Langerdorff appliance. The perfusion medium replacing the blood was a Krebs-Heinsleit standard bicarbonate buffer containing glucose 12 mM as energy source for cardiac metabolism.
After 30 minute perfusion at a pressure of 100 cm of water, ischemia was induced by reducing the perfusion pressure of the heart to 25 cm of water, thus reducing coronary flow from approximately 2 ml/min to approximately 0.3 ml/min. Reduction of the perfusion pressure gives rise to ischemia, since the heart will pump the fluid in the low-perfusion area rather than via the coronary bloodstream, supplying the flow to the heart.
This control model was compared with hearts perfused with L-carnitine 10 mM or L-carnitine fumarate 10 mM.
Cardiac function was tested in three different ways.
In the first, the NRM ^31P signal was monitored in real time.
This signal provides the best indication of the energy status of the heart.
In the second, the haemodynamics of the heart was measured by means of a pressure transducer mounted to measure the perfusion pressure. The haemodynamic measurements include heart rate, relative dP/dt (measurement of the contraction force of the heart) and the cardiac contraction amplitude. Coronary flow was also measured as an indicator of the heart's ability to provide oxygen and energy for its own metabolism.
In the third type of test, the metabolites and the enzyme LDH released by the heart were analysed in the effluent. The release of LDH indicates damage to cardiac tissue. The release of metabolites by the heart was tested by means of mass spectrometry coupled with gas chromatography.
The procedures of example 1 were substantially repeated, with the addition of a treatment with carnitine alone as a further control.

[1] = amount equivalent to the exogenous L-carnitine required; cited from earlier work
[2] = heart effluent, GC-MS, low-flow ischemia, 10 mM, vs control hearts

Compound | ATP phosphate peaks (alpha, beta, gamma) (Perfused Heart; 31P NMR, FIG. 2, after 40 minutes of ischemia, Example 2) | gastrointestinal disorders (increased volume and fluidity of faeces and frequency of bowel movements) [1] | reserves of high-energy phosphate (creatine phosphate observed at NMR) (Perfused Heart; 31P NMR, after 45 minutes of ischemia, 10 mM, vs control hearts) | succinate released by the heart (Perfused Heart; heart effluent, FIG. 3, as compared to lactate, Example 2) | lactate released by the heart (Perfused Heart; [2]) | release of malate (Perfused Heart; [2]) | release of LDH (Perfused Heart; heart effluent, low-flow ischemia, 10 mM in perfusion medium, vs control hearts) | coronary flow (Perfused Heart; postischemic, 10 mM, vs control hearts) | postischemic cardiac contraction amplitude (Perfused Heart; pressure transducer, 10 mM, vs control hearts)
C[N+](C)(C)C[C@H](O)CC(=O)[O-] [L-carnitine] | lacking | caused | – | – | – | – | – | – | –
C[N+](C)(C)C[C@H](O)CC(=O)[O-].O=C(O)C(O)C(O)C(=O)O [L-carnitine L-tartrate] | – | caused | – | – | – | – | – | – | –
L-carnitine acid fumarate [L-carnitine fumarate] | – | eliminated | greater | low amount | less and reduction | more | reduced; also recorded: affords protection against ischemic damage | greater | greater
